Results published in paper PMC6277767, “Broad and Region-Specific Impacts of the Synthetic Cannabinoid CP 55,940 in Adolescent and Adult Female Mouse Brains” (Frontiers in Molecular Neuroscience, 2018).

Tested on: CD1 female mouse brain lipidome
Assay: Brain-region lipid levels (HPLC/MS/MS lipidomics) 2 h after single i.p. 3 mg/kg CP 55,940 vs vehicle
Type: in vivo
Conditions: cerebellum
Procedure: The Bloomington Institutional Animal Care and Use Committee of Indiana University reviewed and approved the animal procedures. Female mice from the CD1 strain were utilized to match our study examining THC’s effects on the brain lipidome ([Leishman et al., 2018]). Mice were given a single i.p. injection of either 3 mg/kg CP or 1:1:18 cremophor:ethanol:saline vehicle (please refer to the section “3 mg/kg CP Is Relevant for Synthetic Cannabinoid Abuse and Has Stronger Effects on the Female Mouse Brain Lipidome During Adolescence” for a justification of dose and use of female mice). Three different age groups were given injections: PND 35 and PND 50 adolescents, and adult mice (PND 113). At least eight mice in each age group received CP and at least eight received vehicle. Matching the THC study time course ([Leishman et al., 2018]), mice were sacrificed via rapid decapitation 2 h after injection. Brains were immediately removed and flash-frozen in liquid nitrogen, and then stored at -80°C until dissections were performed. Brains were dissected on an ice-cold dissection plate into the following regions: STR, HIPP, CER, THAL, CTX, HYP, MID, and STEM. These abbreviations for these brain areas will be used exclusively when discussing the results generated by these specific dissections. Each dissected area was immediately placed in liquid nitrogen and then stored at -80°C until used for lipid extraction.
Tissue extracts were performed as previously described ([Bradshaw et al., 2006]; [Stuart et al., 2013]; [Raboune et al., 2014]; [Leishman et al., 2016a],[b], [2017], [2018]). First, samples were shock frozen in liquid nitrogen, weighed, and transferred to a centrifuge tube. The mass of the largest sample was multiplied by 50 to determine how many milliliters of HPLC-grade methanol (Fisher, Fair Lawn, NJ, United States) to add. Then, samples were spiked with 500 pmol deuterium-labeled NAGly (d8NAGly; Cayman Chemical, Ann Arbor, MI, United States). Samples were placed on ice in darkness for 2 h then individually homogenized and centrifuged at 19,000 × g for 20 min at 20°C. Supernatants were diluted with HPLC water (purified in house) to make a solution of 75% water, 25% supernatant. Lipids were partially purified on C18 solid phase extraction columns (Agilent, Palo Alto, CA, United States). A series of four elutions with 1.5 mL of 60%, 75%, 85%, and 100% methanol were collected ([Stuart et al., 2013]; [Leishman et al., 2016a],[b], [2018]).
As previously described ([Bradshaw et al., 2006]; [Tan et al., 2006]; [Smoum et al., 2010]; [Stuart et al., 2013]; [Tortoriello et al., 2013]; [Raboune et al., 2014]; [Leishman et al., 2016a],[b], [2017], [2018]), samples were analyzed using an Applied Biosystems API 3000 triple quadrupole mass spectrometer with electrospray ionization (Foster City, CA, United States). Using an Agilent XDB-C18 reversed phase analytical column and optimized mobile phase gradients, 20 μL from each elution were chromatographed. Two Shimadzu 10ADvp pumps (Columbia, MD, United States) provided the pressure for gradient elution. Mobile phase A: 20% methanol, 80% water (v/v) and 1 mM ammonium acetate (Sigma, St. Louis, MO, United States). Mobile phase B: 100% methanol, 1 mM ammonium acetate. Every method run began with 0% mobile phase B, reached 100% mobile phase B flowing at 0.2 mL/min, and gradually returned to 0% mobile phase B.
This screening library will be referred to as the lipidome when discussing data from this study. HPLC/MS/MS data were analyzed using Analyst software (Applied Biosystems) ([Bradshaw et al., 2006]; [Tan et al., 2006]; [Stuart et al., 2013]; [Tortoriello et al., 2013]; [Raboune et al., 2014]; [Leishman et al., 2016a],[b], [2017], [2018]). Chromatograms (Supplementary Figure 3) were generated by determining the retention time of analytes from the analytical column with a [M-1] or [M+1] parent peak and a fragmentation peak corresponding to the programmed values. […]

[1] = WT adult female mice, 3mg/kg CP 55,940

## CCCCCCC(C)(C)c1ccc([C@@H]2C[C@H](O)CC[C@H]2CCCO)c(O)c1 [CP 55,940]
[1]
  N-palmitoyl serine level, Mean: 5.77E-12
  N-palmitoyl tyrosine level, Mean: 9.82E-13
  N-palmitoyl valine level, Mean: 1.08E-13
  N-stearoyl GABA level, Mean: 1.12E-11
  N-stearoyl alanine level, Mean: 5.69E-12
  N-stearoyl ethanolamine level, Mean: 1.6E-11
  N-stearoyl glycine level, Mean: 1.62E-12
  N-stearoyl leucine level, Mean: 1.18E-12
  N-stearoyl methionine level, Mean: 3.32E-13
  N-stearoyl phenylalanine level, Mean: 2.74E-13
  N-stearoyl serine level, Mean: 1.52E-11
  Oleic acid level, Mean: 6.36E-10
  PGE2 level, Mean: 2.14E-10
  PhosphoLEA level, Mean: 4.64E-12
adult, 3 mg/kg CP 55,940
  2-arachidonoyl glycerol: Direction (relative to Veh): ↓
  2-arachidonoyl glycerol: Magnitude (x Veh level): 0.81 x Veh level
  2-linoleoyl glycerol: Direction (relative to Veh): ↓
  2-linoleoyl glycerol: Magnitude (x Veh level): 0.66 x Veh level
  2-oleoyl glycerol: Direction (relative to Veh): ↓
  2-oleoyl glycerol: Magnitude (x Veh level): 0.74 x Veh level
  6-ketoPGF1α: Direction (relative to Veh): ↓
  6-ketoPGF1α: Magnitude (x Veh level): 0.68 x Veh level
  Arachidonic acid: Direction (relative to Veh): ↓
  Arachidonic acid: Magnitude (x Veh level): 0.67 x Veh level
  Linoleic acid: Direction (relative to Veh): ↓
  Linoleic acid: Magnitude (x Veh level): 0.63 x Veh level
  N-arachidonoyl GABA: Direction (relative to Veh): ↓
  N-arachidonoyl GABA: Magnitude (x Veh level): 0.65 x Veh level
  N-arachidonoyl ethanolamine: Direction (relative to Veh): ↓
  N-arachidonoyl ethanolamine: Magnitude (x Veh level): 0.63 x Veh level
  N-arachidonoyl phenylalanine: Direction (relative to Veh): ↓
  N-arachidonoyl phenylalanine: Magnitude (x Veh level): 0.41 x Veh level
  N-arachidonoyl taurine: Direction (relative to Veh): ↓
  N-arachidonoyl taurine: Magnitude (x Veh level): 0.77 x Veh level
  N-docosahexaenoyl GABA: Direction (relative to Veh): ↓
  N-docosahexaenoyl GABA: Magnitude (x Veh level): 0.83 x Veh level
  N-docosahexaenoyl ethanolamine: Direction (relative to Veh): ↓
  N-docosahexaenoyl ethanolamine: Magnitude (x Veh level): 0.73 x Veh level
  N-linoleoyl GABA: Direction (relative to Veh): ↓
  N-linoleoyl GABA: Magnitude (x Veh level): 0.83 x Veh level
  N-linoleoyl ethanolamine: Direction (relative to Veh): ↓
  N-linoleoyl ethanolamine: Magnitude (x Veh level): 0.64 x Veh level
  N-oleoyl serine: Direction (relative to Veh): ↓
  N-oleoyl serine: Magnitude (x Veh level): 0.72 x Veh level
  N-oleoyl valine: Direction (relative to Veh): ↑
  N-oleoyl valine: Magnitude (x Veh level): 2.05 x Veh level
  N-palmitoyl tyrosine: Direction (relative to Veh): ↓
  N-palmitoyl tyrosine: Magnitude (x Veh level): 0.74 x Veh level
  Oleic acid: Direction (relative to Veh): ↓
  Oleic acid: Magnitude (x Veh level): 0.63 x Veh level
  PGE2: Direction (relative to Veh): ↓
  PGE2: Magnitude (x Veh level): 0.70 x Veh level
  PGF2α: Direction (relative to Veh): ↓
  PGF2α: Magnitude (x Veh level): 0.67 x Veh level
  phosphoLEA: Direction (relative to Veh): ↓
  phosphoLEA: Magnitude (x Veh level): 0.71 x Veh level
PND 35, 3 mg/kg CP 55,940
  2-arachidonoyl glycerol: Direction (relative to Veh): ↓
  2-arachidonoyl glycerol: Magnitude (x Veh level): 0.80 x Veh level
  2-linoleoyl glycerol: Direction (relative to Veh): ↓
  2-linoleoyl glycerol: Magnitude (x Veh level): 0.75 x Veh level
  6-ketoPGF1α: Magnitude (x Veh level): 0.61 x Veh level
  Arachidonic acid: Direction (relative to Veh): ↓
  Arachidonic acid: Magnitude (x Veh level): 0.92 x Veh level
  N-arachidonoyl GABA: Direction (relative to Veh): ↓
  N-arachidonoyl GABA: Magnitude (x Veh level): 0.72 x Veh level
  N-arachidonoyl alanine: Direction (relative to Veh): ↓
  N-arachidonoyl alanine: Magnitude (x Veh level): 0.71 x Veh level
  N-arachidonoyl glycine: Direction (relative to Veh): ↓
  N-arachidonoyl glycine: Magnitude (x Veh level): 0.89 x Veh level
  N-arachidonoyl methionine: Direction (relative to Veh): ↓
  N-arachidonoyl methionine: Magnitude (x Veh level): 0.63 x Veh level
  N-arachidonoyl serine: Direction (relative to Veh): ↓
  N-arachidonoyl serine: Magnitude (x Veh level): 0.74 x Veh level
  N-arachidonoyl taurine: Direction (relative to Veh): ↓
  N-arachidonoyl taurine: Magnitude (x Veh level): 0.87 x Veh level
  N-arachidonoyl tyrosine: Direction (relative to Veh): ↓
  N-arachidonoyl tyrosine: Magnitude (x Veh level): 0.70 x Veh level
  N-docosahexaenoyl GABA: Direction (relative to Veh): ↓
  N-docosahexaenoyl GABA: Magnitude (x Veh level): 0.81 x Veh level
  N-docosahexaenoyl alanine: Direction (relative to Veh): ↓
  N-docosahexaenoyl alanine: Magnitude (x Veh level): 0.72 x Veh level
  N-docosahexaenoyl glycine: Direction (relative to Veh): ↓
  N-docosahexaenoyl glycine: Magnitude (x Veh level): 0.92 x Veh level
  N-docosahexaenoyl leucine: Direction (relative to Veh): ↑
  N-docosahexaenoyl leucine: Magnitude (x Veh level): 1.44 x Veh level
  N-docosahexaenoyl serine: Direction (relative to Veh): ↓
  N-docosahexaenoyl serine: Magnitude (x Veh level): 0.72 x Veh level
  N-docosahexaenoyl tyrosine: Direction (relative to Veh): ↓
  N-docosahexaenoyl tyrosine: Magnitude (x Veh level): 0.84 x Veh level
  N-linoleoyl glycine: Direction (relative to Veh): ↓
  N-linoleoyl glycine: Magnitude (x Veh level): 0.89 x Veh level
  N-linoleoyl leucine: Direction (relative to Veh): ↑
  N-linoleoyl leucine: Magnitude (x Veh level): 1.29 x Veh level
  N-linoleoyl phenylalanine: Direction (relative to Veh): ↑
  N-linoleoyl phenylalanine: Magnitude (x Veh level): 1.28 x Veh level
  N-oleoyl GABA: Direction (relative to Veh): ↓
  N-oleoyl GABA: Magnitude (x Veh level): 0.83 x Veh level
  N-oleoyl ethanolamine: Direction (relative to Veh): ↓
  N-oleoyl ethanolamine: Magnitude (x Veh level): 0.81 x Veh level
  N-oleoyl leucine: Direction (relative to Veh): ↑
  N-oleoyl leucine: Magnitude (x Veh level): 1.25 x Veh level
  N-oleoyl phenylalanine: Direction (relative to Veh): ↑
